From patent US12583861B2, “Derivatives of imidazo[4,5-d]pyridazine, their preparation and their therapeutic application” (SANOFI, priority 2021, dated 2026)
pEC50: −log10 of the molar value.

Key:
human TLR8 = biological target: T1, human TLR8 (Homo sapiens, UniProt Q9NR97); assay: HEK-Blue hTLR8 reporter cell assay (SEAP, NF-kB/AP-1) for stimulation of human TLR8; format: cell-based; conditions: HEK-Blue hTLR8 cells, 24 h incubation, SEAP readout; read-out: TLR8_EC50
T1 construct: host or cells: HEK293 (HEK-Blue hTLR8)
T1 sequence (Q9NR97 27-1041): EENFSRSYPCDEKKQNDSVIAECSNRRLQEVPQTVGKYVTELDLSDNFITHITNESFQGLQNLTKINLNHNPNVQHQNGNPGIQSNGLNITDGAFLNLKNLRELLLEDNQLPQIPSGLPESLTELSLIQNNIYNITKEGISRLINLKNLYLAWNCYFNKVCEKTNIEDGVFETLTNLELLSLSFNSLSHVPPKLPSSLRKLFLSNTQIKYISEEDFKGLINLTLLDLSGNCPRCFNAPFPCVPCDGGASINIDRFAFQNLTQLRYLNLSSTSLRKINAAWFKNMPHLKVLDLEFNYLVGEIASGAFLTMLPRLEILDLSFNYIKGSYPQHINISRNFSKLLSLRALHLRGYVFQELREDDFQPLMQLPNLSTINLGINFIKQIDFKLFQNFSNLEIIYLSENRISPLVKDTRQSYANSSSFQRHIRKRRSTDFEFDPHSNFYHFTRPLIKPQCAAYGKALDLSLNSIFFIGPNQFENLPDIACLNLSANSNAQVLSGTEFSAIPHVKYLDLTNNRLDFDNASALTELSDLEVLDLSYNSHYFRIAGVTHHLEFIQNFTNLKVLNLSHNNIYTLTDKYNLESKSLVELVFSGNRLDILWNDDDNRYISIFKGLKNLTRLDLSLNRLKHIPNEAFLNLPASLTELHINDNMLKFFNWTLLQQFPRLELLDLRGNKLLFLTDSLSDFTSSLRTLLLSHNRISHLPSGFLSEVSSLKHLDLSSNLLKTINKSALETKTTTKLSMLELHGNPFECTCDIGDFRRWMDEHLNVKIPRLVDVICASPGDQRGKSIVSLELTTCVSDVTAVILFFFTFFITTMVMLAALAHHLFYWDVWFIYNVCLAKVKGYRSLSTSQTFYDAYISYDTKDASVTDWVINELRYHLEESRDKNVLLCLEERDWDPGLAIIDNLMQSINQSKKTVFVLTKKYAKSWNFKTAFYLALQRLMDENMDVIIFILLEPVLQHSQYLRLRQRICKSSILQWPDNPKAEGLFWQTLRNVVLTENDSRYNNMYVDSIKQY
Summary of the method: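 Stimulation is quantified as secreted alkaline phosphatase in supernatant using QUANTI-Blue™ substrate. Reporter HEK293 line co-transfected with hTLR8 and SEAP under an IFN-β minimal promoter with five NF-κB/AP-1 sites; 3.10E4 cells/well, 18 to 24 h pre-culture at 37° C. before compounds.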

TNF-α = TNF-α cytokine activation in human PBMC (MSD assay); format: cell-based
Procedure: The other below tests involving measuring the in vitro activity of some compounds of the disclosure on cytokines IFN-α2a, IL-6, IL29 and TNF-α were carried out using human PBMC (PBMCs).
The activity described below, with respect to TLR7, TLR8, IFN-α2a, IL-6, IL29 and TNF-α, is given by the half maximal effective concentration (EC50), which corresponds to the concentration required to obtain a 50% of the activation. The lower the EC50, the less the concentration of the compound is required to produce 50% of maximum activation and the higher the potency.
In Vitro Assay to Determine IFN-α2a, IL-6, IL29 and TNF-α Cytokine Activation:
Peripheral blood mononuclear cells were isolated by Ficoll density gradient centrifugation from peripheral blood samples obtained from healthy donors (EFS). Isolated PBMCs are washed twice with PBS and resuspended in RPMI-1640 medium supplement with 10% fetal bovine serum (FBS) at 5.10^5 cells/well in a 96-well plate. The cells were then incubated with the compounds to test at various doses (20 μM to 4.8.10-6 μM final) for 24 h at 37° C., 5% CO2. After 24 h treatment, the plates are centrifuged and the supernatant were collected and assayed for cytokines IFN-α2a, IL-6, IL29 and TNF-α using the Meso Scale Discovery (MSD) assay platform according to the manufacturer's instructions. Briefly, 25 μL of cell culture supernatants were incubated for 1 h at Room Temperature (RT) in custom Multi-Spot 96-well plates prior coated with capture antibodies. After washing, SULFO-TAG® labeled detection antibodies were added to each of the wells and incubated for 1 h RT before adding a read buffer.

SMILES | pEC50 (human TLR8) | pEC50 (TNF-α; Homo sapiens, PBMC, 24 h) | pEC50 (TNF-α; 24 h) | pEC50 (TNF-α; 24 h, 2,2,2-trifluoroacetate)
CCCCc1nc2c(N)nnc(OC(C)C)c2n1C[C@H]1CCC[C@@H](N)C1 (racemic) [Compound 23, 1-(((1S,3R)-3-aminocyclohexyl)methyl)-2-butyl-7-isopropoxy-1H-imidazo[4,5-d]pyridazin-4-amine (and enantiomer)] | 4.83 | 5.26 | – | –
CCCCc1nc2c(N)nnc(SC(C)C)c2n1Cc1ccc(OC)cc1 [Compound 3, 2-butyl-7-(isopropylthio)-1-(4-methoxybenzyl)-1H-imidazo[4,5-d]pyridazin-4-amine] | < 4.70 | 5.55 | – | –
C=CCOc1nnc(N)c2nc(CCCC)n(Cc3ccc(OC)cc3)c12 [Compound 6, 7-(allyloxy)-2-butyl-1-(4-methoxybenzyl)-1H-imidazo[4,5-d]pyridazin-4-amine] | < 4.70 | 6.19 | – | –
CCCCc1nc2c(N)nnc(N3CCCC3)c2n1Cc1ccc(OC)cc1 [Compound 10, 2-butyl-1-(4-methoxybenzyl)-7-(pyrrolidin-1-yl)-1H-imidazo[4,5-d]pyridazin-4-amine] | < 4.70 | 6.34 | – | –
CCCCc1nc2c(N)nnc(-c3cc[nH]c3)c2n1Cc1ccc(OC)cc1 [Compound 14, 2-butyl-1-(4-methoxybenzyl)-7-(1H-pyrrol-3-yl)-1H-imidazo[4,5-d]pyridazin-4-amine] | < 4.70 | 6.15 | – | –
C=C(C)c1nnc(N)c2nc(CCCC)n(Cc3ccc(OC)cc3)c12 [Compound 17, 2-butyl-1-(4-methoxybenzyl)-7-(prop-1-en-2-yl)-1H-imidazo[4,5-d]pyridazin-4-amine] | < 4.70 | < 4.70 | – | –
CCCCc1nc2c(N)nnc(OC(C)C)c2n1Cc1ccc(CN)cc1 [Compound 21, 1-(4-(aminomethyl)benzyl)-2-butyl-7-isopropoxy-1H-imidazo[4,5-d]pyridazin-4-amine] | 5.86 | – | 6.55 | –
CCCCc1nc2c(N)nnc(OC(C)C)c2n1Cc1ccc(CN)cc1 [Compound 22, 1-(4-(aminomethyl)benzyl)-2-butyl-7-isopropoxy-1H-imidazo[4,5-d]pyridazin-4-amine 2,2,2-trifluoroacetate] | 5.58 | – | – | 5.55
CCCCc1nc2c(N)nnc(OC(C)C)c2n1Cc1cccc(CN)c1 [Compound 33, 1-(3-(aminomethyl)benzyl)-2-butyl-7-isopropoxy-1H-imidazo[4,5-d]pyridazin-4-amine 2,2,2-trifluoroacetate] | 6.47 | 5.89 | – | –
CCCCc1nc2c(N)nnc(OC(C)C)c2n1Cc1ccc(C=O)cc1 [Compound 34, 4-((4-amino-2-butyl-7-isopropoxy-1H-imidazo[4,5-d]pyridazin-1-yl)methyl)benzaldehyde] | < 4.70 | 6.18 | – | –
CCCCc1nc2c(N)nnc(OC(C)C)c2n1Cc1ccc(CO)cc1 [Compound 35, (4-((4-amino-2-butyl-7-isopropoxy-1H-imidazo[4,5-d]pyridazin-1-yl)methyl)phenyl)methanol] | < 4.70 | 6.46 | – | –
CCCCc1nc2c(N)nnc(N(C)C)c2n1Cc1ccc(OC)cc1 [Compound 71, 2-butyl-1-(4-methoxybenzyl)-N7,N7-dimethyl-1H-imidazo[4,5-d]pyridazine-4,7-diamine] | < 4.70 | 5.76 | – | –

Results, then the compound that gave them:

pEC50 (human TLR8) | pEC50 (TNF-α; Homo sapiens, PBMC, 24 h) | pEC50 (TNF-α; 24 h) | pEC50 (TNF-α; 24 h, 2,2,2-trifluoroacetate) | SMILES
< 4.70 | 6.15 | – | – | CCCCc1nc2c(N)nnc(OC(C)C)c2n1Cc1ccc(OC)cc1 [Compound 1, 2-butyl-7-isopropoxy-1-(4-methoxybenzyl)-1H-imidazo[4,5-d]pyridazin-4-amine]
< 4.70 | 6.24 | – | – | CCCCc1nc2c(N)nnc(NC(C)C)c2n1Cc1ccc(OC)cc1 [Compound 2, 2-butyl-N7-isopropyl-1-(4-methoxybenzyl)-1H-imidazo[4,5-d]pyridazin-4,7-diamine]
< 4.70 | < 4.70 | – | – | CCCCc1nc2c(N)nnc(OCCOC)c2n1Cc1ccc(OC)cc1 [Compound 4, 2-butyl-1-(4-methoxybenzyl)-7-(2-methoxyethoxy)-1H-imidazo[4,5-d]pyridazin-4-amine]
< 4.70 | 6.42 | – | – | CCCCc1nc2c(N)nnc(OC3CCCC3)c2n1Cc1ccc(OC)cc1 [Compound 9, 2-butyl-7-(cyclopentyloxy)-1-(4-methoxybenzyl)-1H-imidazo[4,5-d]pyridazin-4-amine]
< 4.70 | 5.55 | – | – | CCCCc1nc2c(N)nnc(C(C)C)c2n1Cc1ccc(OC)cc1 [Compound 18, 2-butyl-7-isopropyl-1-(4-methoxybenzyl)-1H-imidazo[4,5-d]pyridazin-4-amine]
5.14 | 5.28 | – | – | CCCCc1nc2c(N)nnc(N(C)C)c2n1C [Compound 41, 2-butyl-N7,N7,1-trimethyl-1H-imidazo[4,5-d]pyridazine-4,7-diamine]
< 4.70 | 6.04 | – | – | CCCCc1nc2c(N)nnc(OCC)c2n1Cc1ccc(OC)cc1 [Compound 48, 2-butyl-7-ethoxy-1-(4-methoxybenzyl)-1H-imidazo[4,5-d]pyridazin-4-amine]
< 4.70 | 5.26 | – | – | CCCCc1nc2c(N)nnc(NCCOC)c2n1Cc1ccc(OC)cc1 [Compound 49, 2-butyl-1-(4-methoxybenzyl)-N7-(2-methoxyethyl)-1H-imidazo[4,5-d]pyridazine-4,7-diamine]
< 4.70 | 5.29 | – | – | CCCCc1nc2c(N)nnc(OC(C)C)c2n1Cc1ccccn1 [Compound 75, 2-butyl-7-isopropoxy-1-(pyridin-2-ylmethyl)-1H-imidazo[4,5-d]pyridazin-4-amine]
5.12 | 5.63 | – | – | CCCCc1nc2c(N)nnc(N3CCC(c4ccccc4)C3)c2n1C (centres unmarked) [Compound 89, 2-butyl-1-methyl-7-(3-phenylpyrrolidin-1-yl)-1H-imidazo[4,5-d]pyridazin-4-amine]
